Measured values taken from publication PMC3131558, “Plitidepsin Has a Safe Cardiac Profile: A Comprehensive Analysis” (Marine Drugs, 2011).

What was measured:
[1] = system: adult patients with advanced solid tumors or hematological malignancies; assay: Cardiac adverse events (CAEs) in phase I/II clinical trials of single-agent plitidepsin; type: in vivo, human; details: for CAE group: Miscellaneous Cardiac Adverse Events / CAE group: Myocardial Injury / CAE group: Rhythm Abnormalities / CAE subgroup: Irregular Supraventricular Tachycardia / CAE subgroup: Other Myocardial Injury / CAE subgroup: Other Rhythm Abnormalities / CAE subgroup: Possible Ischemic Related / CAE subgroup: Regular Supraventricular Tachycardia / CAE: Acute myocardial infarction / CAE: Arrhythmia / CAE: Atrial fibrillation / CAE: Atrial flutter / CAE: Atrioventricular block / CAE: Cardiac amyloidosis / CAE: Cardiac failure / CAE: Cardiac troponin I increased / CAE: Cardiomegaly / CAE: Cardiomyopathy / CAE: Change in electrocardiogram / CAE: Chest pain / CAE: Ejection fraction decreased / CAE: Electrocardiogram QT prolonged / CAE: Electrocardiogram ST-T change / CAE: Heart rate irregular / CAE: Hypertension / CAE: Hypotension / CAE: Myocardial ischemia / CAE: Palpitations / CAE: Pericardial effusion / CAE: Sinus tachycardia / CAE: Supraventricular arrhythmia / CAE: Supraventricular tachycardia / CAE: Tachycardia / CAE: Ventricular hypokinesia / Total Adverse Events (cardiac): regardless of relationship
Source text: Clinical trials included in this cardiac safety analysis were 4 phase I and 14 phase II studies evaluating plitidepsin as single-agent chemotherapy in a total of 578 adult patients (see details in Table 1). All available information on CAEs was retrieved from Pharma Mar’s internal Pharmacovigilance and Clinical Trials databases. The reviewed sources of information were Case Report Forms (CRFs), serious adverse event (SAE) reports, follow-up reports and supplementary reports attached or requested. Median follow-up was 12.0 months (95% CI, 7.6–13.8) for phase I trials and 12.3 months for phase II trials (95% CI, 11.0–13.7). Cutoff for data analysis was 20 November 2008.
All adverse events (AEs) with preferred terms of the Medical Dictionary for Regulatory Activities (MedDRA) that could be potentially classified as cardiac were evaluated. Additionally, events included in other systems as well in those patients with any vascular risk associated (prior history or within the trial) were also reviewed. Laboratory data were also reviewed in those cases with grade 3/4 creatine phosphokinase increase and/or troponin ([…] or troponin I) elevations. Patients’ prior history and baseline information were searched for any associated vascular risk (diabetes, hypercholesterolemia, hypertension, smoking, prior myocardial infarction or angina, etc.). All events retrieved using the aforementioned criteria were reviewed to identify and exclude from analysis potential CAEs due to obvious cancer-related symptoms (e.g., sinusal tachycardia in anemic patients, chest pain obviously related to tumor involvement of the chest). […] The information obtained was tabulated and a descriptive analysis is reported here.

HERG = details: preclinical, in vitro; cited from earlier work
Source text: (§1) Plitidepsin, a cyclic depsipeptide of marine origin, is an investigational drug currently in clinical development as a single agent as well as in combination with other anticancer agents for the treatment of different solid tumors and hematological malignancies. […] CAE ...

[2] = system: guinea pig Langendorff preparation; details: exploratory study; cited from earlier work
Source text: as §1

Purkinje fibers = details: preclinical, in vitro; cited from earlier work
Source text: as §1

dog = details: preclinical; cited from earlier work
Source text: as §1

plitidepsin
CAE group: Miscellaneous Cardiac Adverse Events ([1]; All studies (n = 578)): 6 (1.0%) Patients (%)
CAE group: Myocardial Injury ([1]; All studies (n = 578)): 17 (3.0%) Patients (%)
CAE group: Rhythm Abnormalities ([1]; All studies (n = 578)): 31 (5.4%) Patients (%)
CAE subgroup: Irregular Supraventricular Tachycardia ([1]; All studies (n = 578)): 15 (2.6%) Patients (%)
CAE subgroup: Other Myocardial Injury ([1]; All studies (n = 578)): 7 (1.2%) Patients (%)
CAE subgroup: Other Rhythm Abnormalities ([1]; All studies (n = 578)): 13 (2.2%) Patients (%)
CAE subgroup: Possible Ischemic Related ([1]; All studies (n = 578)): 10 (1.7%) Patients (%)
CAE subgroup: Regular Supraventricular Tachycardia ([1]; All studies (n = 578)): 6 (1.0%) Patients (%)
CAE: Acute myocardial infarction ([1]; All studies (n = 578)): 1 (0.2%) Patients (%)
CAE: Arrhythmia ([1]; All studies (n = 578)): 1 (0.2%) Patients (%)
CAE: Atrial fibrillation ([1]; All studies (n = 578)): 11 (1.9%) Patients (%)
CAE: Atrial flutter ([1]; All studies (n = 578)): 5 (0.9%) Patients (%)
CAE: Atrioventricular block ([1]; All studies (n = 578)): 1 (0.2%) Patients (%)
CAE: Cardiac amyloidosis ([1]; All studies (n = 578)): 1 (0.2%) Patients (%)
CAE: Cardiac failure ([1]; All studies (n = 578)): 3 (0.5%) Patients (%)
CAE: Cardiac troponin I increased ([1]; All studies (n = 578)): 1 (0.2%) Patients (%)
CAE: Cardiomegaly ([1]; All studies (n = 578)): 1 (0.2%) Patients (%)
CAE: Cardiomyopathy ([1]; All studies (n = 578)): 2 (0.3%) Patients (%)
CAE: Change in electrocardiogram ([1]; All studies (n = 578)): 1 (0.2%) Patients (%)
CAE: Chest pain ([1]; All studies (n = 578)): 4 (0.7%) Patients (%)
CAE: Ejection fraction decreased ([1]; All studies (n = 578)): 1 (0.2%) Patients (%)
CAE: Electrocardiogram QT prolonged ([1]; All studies (n = 578)): 5 (0.9%) Patients (%)
CAE: Electrocardiogram ST-T change ([1]; All studies (n = 578)): 1 (0.2%) Patients (%)
CAE: Heart rate irregular ([1]; All studies (n = 578)): 1 (0.2%) Patients (%)
CAE: Hypertension ([1]; All studies (n = 578)): 1 (0.2%) Patients (%)
CAE: Hypotension ([1]; All studies (n = 578)): 2 (0.3%) Patients (%)
CAE: Myocardial ischemia ([1]; All studies (n = 578)): 3 (0.5%) Patients (%)
CAE: Palpitations ([1]; All studies (n = 578)): 6 (1.0%) Patients (%)
CAE: Pericardial effusion ([1]; All studies (n = 578)): 3 (0.5%) Patients (%)
CAE: Sinus tachycardia ([1]; All studies (n = 578)): 1 (0.2%) Patients (%)
CAE: Supraventricular arrhythmia ([1]; All studies (n = 578)): 1 (0.2%) Patients (%)
CAE: Supraventricular tachycardia ([1]; All studies (n = 578)): 1 (0.2%) Patients (%)
CAE: Tachycardia ([1]; All studies (n = 578)): 3 (0.5%) Patients (%)
CAE: Ventricular hypokinesia ([1]; All studies (n = 578)): 1 (0.2%) Patients (%)
Total Adverse Events (cardiac) ([1]; All studies (n = 578)): 46 (8.0%) Patients (%)
CAE group: Miscellaneous Cardiac Adverse Events ([1]; Phase II studies (n = 364)): 3 (0.8%) Patients (%)
CAE group: Myocardial Injury ([1]; Phase II studies (n = 364)): 14 (3.8%) Patients (%)
CAE group: Rhythm Abnormalities ([1]; Phase II studies (n = 364)): 25 (6.9%) Patients (%)
CAE subgroup: Irregular Supraventricular Tachycardia ([1]; Phase II studies (n = 364)): 14 (3.8%) Patients (%)
CAE subgroup: Other Myocardial Injury ([1]; Phase II studies (n = 364)): 6 (1.6%) Patients (%)
CAE subgroup: Other Rhythm Abnormalities ([1]; Phase II studies (n = 364)): 13 (3.6%) Patients (%)
CAE subgroup: Possible Ischemic Related ([1]; Phase II studies (n = 364)): 8 (2.2%) Patients (%)
CAE subgroup: Regular Supraventricular Tachycardia ([1]; Phase II studies (n = 364)): 1 (0.3%) Patients (%)
CAE: Acute myocardial infarction ([1]; Phase II studies (n = 364)): 1 (0.3%) Patients (%)
CAE: Arrhythmia ([1]; Phase II studies (n = 364)): 1 (0.3%) Patients (%)
CAE: Atrial fibrillation ([1]; Phase II studies (n = 364)): 10 (2.7%) Patients (%)
CAE: Atrial flutter ([1]; Phase II studies (n = 364)): 5 (1.4%) Patients (%)
CAE: Atrioventricular block ([1]; Phase II studies (n = 364)): 1 (0.3%) Patients (%)
CAE: Cardiac amyloidosis ([1]; Phase II studies (n = 364)): 1 (0.3%) Patients (%)
CAE: Cardiac failure ([1]; Phase II studies (n = 364)): 2 (0.5%) Patients (%)
CAE: Cardiac troponin I increased ([1]; Phase II studies (n = 364)): 1 (0.3%) Patients (%)
CAE: Cardiomegaly ([1]; Phase II studies (n = 364)): 1 (0.3%) Patients (%)
CAE: Cardiomyopathy ([1]; Phase II studies (n = 364)): 2 (0.5%) Patients (%)
CAE: Change in electrocardiogram ([1]; Phase II studies (n = 364)): 1 (0.3%) Patients (%)
CAE: Chest pain ([1]; Phase II studies (n = 364)): 2 (0.5%) Patients (%)
CAE: Ejection fraction decreased ([1]; Phase II studies (n = 364)): 1 (0.3%) Patients (%)
CAE: Electrocardiogram QT prolonged ([1]; Phase II studies (n = 364)): 5 (1.4%) Patients (%)
CAE: Electrocardiogram ST-T change ([1]; Phase II studies (n = 364)): 1 (0.3%) Patients (%)
CAE: Heart rate irregular ([1]; Phase II studies (n = 364)): 1 (0.3%) Patients (%)
CAE: Hypertension ([1]; Phase II studies (n = 364)): 0 (0.0%) Patients (%)
CAE: Hypotension ([1]; Phase II studies (n = 364)): 2 (0.5%) Patients (%)
CAE: Myocardial ischemia ([1]; Phase II studies (n = 364)): 3 (0.8%) Patients (%)
CAE: Palpitations ([1]; Phase II studies (n = 364)): 6 (1.6%) Patients (%)
CAE: Pericardial effusion ([1]; Phase II studies (n = 364)): 1 (0.3%) Patients (%)
CAE: Sinus tachycardia ([1]; Phase II studies (n = 364)): 1 (0.3%) Patients (%)
CAE: Supraventricular arrhythmia ([1]; Phase II studies (n = 364)): 0 (0.0%) Patients (%)
CAE: Supraventricular tachycardia ([1]; Phase II studies (n = 364)): 0 (0.0%) Patients (%)
CAE: Tachycardia ([1]; Phase II studies (n = 364)): 0 (0.0%) Patients (%)
CAE: Ventricular hypokinesia ([1]; Phase II studies (n = 364)): 1 (0.3%) Patients (%)
Total Adverse Events (cardiac) ([1]; Phase II studies (n = 364)): 37 (10.2%) Patients (%)
Plitidepsin-related CAEs: chest pain ([1]; of 15 related CAEs): 2 n
Plitidepsin-related CAEs: palpitations ([1]; of 15 related CAEs): 4 n
Patients with a CAE who had a fatal outcome as a direct consequence ([1]; related, unrelated or unknown CAEs): None
Potentially life-threatening arrhythmias (e.g., ventricular arrhythmias) ([1]; within plitidepsin trials): did not occur
Cardiotoxic profile in HERG assay (HERG): did not show a cardiotoxic profile
Cardiac effects of escalating doses in guinea pig Langendorff preparation [2]: did not show a cardiotoxic profile
Cardiotoxic profile in study using Purkinje fibers (Purkinje fibers): did not show a cardiotoxic profile
Cardiotoxic profile in in vivo study in the dog (dog): did not show a cardiotoxic profile
